According to patent US20090124819A1, “2-SUBSTITUTED VITAMIN D DERIVATIVES” (WISCONSIN ALUMNI RESEARCH FOUNDATION, priority 2001, published 2009):

Target: T1, bovine thymus VDR (Bos taurus, UniProt Q28037)
T1 construct: Bovine thymus VDR was purchased from Yamasa Biochemical; purchased Yamasa Biochemical (Choshi, Chiba Prefecture, Japan) lot; 112831; host or cells: bovine thymus
T1 sequence (Q28037 1-426): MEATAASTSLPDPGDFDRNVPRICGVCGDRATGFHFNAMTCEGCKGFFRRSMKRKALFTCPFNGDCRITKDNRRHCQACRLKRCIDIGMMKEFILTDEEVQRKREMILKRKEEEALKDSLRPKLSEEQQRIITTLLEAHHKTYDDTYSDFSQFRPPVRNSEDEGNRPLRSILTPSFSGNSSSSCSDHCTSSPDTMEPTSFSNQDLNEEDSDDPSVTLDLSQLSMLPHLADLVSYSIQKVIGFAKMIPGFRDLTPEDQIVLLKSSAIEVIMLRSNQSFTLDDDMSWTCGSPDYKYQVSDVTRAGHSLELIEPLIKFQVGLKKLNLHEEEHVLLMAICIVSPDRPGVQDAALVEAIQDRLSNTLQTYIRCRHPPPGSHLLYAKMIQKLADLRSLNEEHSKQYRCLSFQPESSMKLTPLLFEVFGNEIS
Test: Binding to bovine thymus vitamin D receptor (VDR), displacement of [3H]-1α,25-dihydroxyvitamin D3
Settings: X=(y/x)×100 from concentrations inhibiting 50% of [3H]-1α,25-dihydroxyvitamin D3 binding; 1α,25-dihydroxyvitamin D3 taken as 100
Protocol: The capability of the vitamin D derivatives of the present invention to bind to bovine thymus VDR was tested.
The vitamin D derivatives of the present invention used were the compounds synthesized in the above-described examples, i.e., (5Z,7E)-(1S,3R)-2,2-dimethyl-9,10-seco-5,7,10(19)-cholestatrien-1,3,25-triol (compound 21), (5Z,7E)-(1R,3S)-2,2-dimethyl-9,10-seco-5,7,10(19)-cholestatrien-1,3,25-triol (compound 22), (5Z,7E)-(1S,3S)-2,2-dimethyl-9,10-seco-5,7,10(19)-cholestatrien-1,3,25-triol (compound 23), and (5Z,7E)-(1R,3R)-2,2-dimethyl-9,10-seco-5,7,10(19)-cholestatrien-1,3,25-triol (compound 24).
In connection with each of compounds 21 to 24 and 1α,25-dihydroxyvitamin D3 (used as a standard), ethanol solutions at various concentrations were prepared in the following manner: In the case of 1α,25-dihydroxyvitamin D3, serial dilutions were prepared at concentrations of 5 nanograms, 500 picograms, 250 picograms, 125 picograms, 63 picograms, 32 picograms, 16 picograms, 8 picograms, 4 picograms, 2 picograms, 1 picogram, 0.5 picogram, and 0.25 picogram as the amount of the compound contained in 50 microliters. In the case of the 1α,3β-compound and the 1α,3α-compound for the configurations of the substituents at the 1-position and the 3-position, serial dilutions were prepared at concentrations of 500 nanograms, 50 nanograms, 25 nanograms, 13 nanograms, 6.3 nanograms, 3.2 nanograms, 1.6 nanograms, 800 picograms, 400 picograms, 200 picograms, 20 picograms, and 2 picograms. In the case of the 1β,3β-compound and the 1β,3α-compound for the configurations of the substituents at the 1-position and the 3-position, serial dilutions were prepared at concentrations of 500 nanograms, 50 nanograms, 5 nanograms, 500 picograms, and 50 picograms.
Bovine thymus VDR was purchased from Yamasa Biochemical (Choshi, Chiba Prefecture, Japan; lot. 112831), and one ampoule thereof (ca. 25 mg) was dissolved in 55 ml of 0.05 M phosphate-0.5 M potassium buffer (pH 7.4).
The ethanol solution […] of each of compounds 21 to 24 or 1α,25-dihydroxyvitamin D3 and the receptor solution (500 μl) were placed in a test tube, and pre-incubated for 1 hour at room temperature. Then, a [^3H]-1α,25-dihydroxyvitamin D3 solution (50 μl) was added at a final concentration of 0.1 nM, and the mixture was incubated overnight at 4° C. Dextran-coated charcoal was added to the reaction mixture, followed by mixing. […] The supernatant (500 μl) was mixed with ACS-II (9.5 ml) (Amersham, England) for radioactivity measurement.
The relative VDR-binding potency of each of Compounds 21 to 24 was calculated from the following equation, with the VDR-binding potency of 1α,25-dihydroxyvitamin D3 being taken as 100. […]

C=C1/C(=C\C=C2/CCC[C@@]3(C)C2CCC3[C@H](C)CCCC(C)(C)O)C[C@@H](O)C(C)(C)[C@@H]1O (stereo partly drawn) [Compound 21, (5Z,7E)-(1S,3R)-2,2-Dimethyl-9,10-seco-5,7,10(19)-cholestatrien-1,3,25-triol]
Binding potency (relative VDR-binding potency): 3

C=C1C(=CC=C2CCCC3(C)C2CCC3C(C)CCCC(C)(C)O)CC(O)C(C)(C)C1O [Compound 22, (5Z,7E)-(1R,3S)-2,2-Dimethyl-9,10-seco-5,7,10(19)-cholestatrien-1,3,25-triol]
Binding potency (relative VDR-binding potency): 0.005

C=C1/C(=C\C=C2/CCC[C@@]3(C)C2CCC3[C@H](C)CCCC(C)(C)O)C[C@@H](O)C(C)(C)[C@H]1O (stereo partly drawn) [Compound 24, (5Z,7E)-(1R,3R)-2,2-Dimethyl-9,10-seco-5,7,10(19)-cholestatrien-1,3,25-triol]
Binding potency (relative VDR-binding potency): <0.001

C=C1/C(=C\C=C2/CCC[C@@]3(C)C2CCC3[C@H](C)CCCC(C)(C)O)C[C@H](O)C(C)(C)[C@@H]1O (stereo partly drawn) [Compound 23, (5Z,7E)-(1S,3S)-2,2-Dimethyl-9,10-seco-5,7,10(19)-cholestatrien-1,3,25-triol]
Binding potency (relative VDR-binding potency): 0.06
